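Results reflect a 48-hour exposure of cells in 96-well plates to compound at five concentrations. The concentration for 50% growth inhibition is given as GI50. TGI: concentration producing complete growth inhibition.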

Among the test systems are RXF 393 renal; RPMI-8226 leukemia; OVCAR-3 ovarian; HOP-62 NSCLC; IGROV1 ovarian; SF-268 CNS; UACC-257 melanoma; SNB-75 CNS.
Common to all, as to assay: NCI anticancer screen, dose series, 48 h

Regarding `CC1=NN(c2cccc(Cl)c2)C2(SCC(=O)N2c2nc3ccccc3s2)/C1=C\c1cccs1` (centres undefined), the TGI in the experiment with RXF 393 renal is 51.6 µM; in the experiment on RPMI-8226 leukemia it was 38.7 µM; in the experiment on OVCAR-3 ovarian, 86.8 µM; in the experiment with HOP-62 NSCLC, > 100 µM; in the experiment on IGROV1 ovarian it was > 100 µM; with SF-268 CNS it was 44 µM. Further, the TGI in the experiment on UACC-257 melanoma stood at 64 µM; with SNB-75 CNS it was 47.9 µM.

`Fc1ccc(C(OCCN2CCC3CCC(C2)N3C/C=C/c2ccco2)c2ccc(F)cc2)cc1` (centres undefined): the TGI is 15.7 µM in the experiment on RXF 393 renal; 17.3 µM in the experiment on RPMI-8226 leukemia; 27.5 µM in the experiment on OVCAR-3 ovarian; 36.5 µM with HOP-62 NSCLC; 21 µM in the experiment with IGROV1 ovarian; 25.9 µM in the experiment on SF-268 CNS. Besides, the TGI is 17.4 µM in the experiment on UACC-257 melanoma and 30 µM in the experiment on SNB-75 CNS.

As for `COc1cccc2c1Cc1cc(-c3ccccc3)[n+](C)n1-2`, the TGI in the experiment with RXF 393 renal is 73.6 µM; in the experiment with RPMI-8226 leukemia, > 100 µM; in the experiment with OVCAR-3 ovarian, > 100 µM; in the experiment with HOP-62 NSCLC, > 100 µM; in the experiment with IGROV1 ovarian, > 100 µM; in the experiment on SF-268 CNS it was > 100 µM. Further, the TGI was determined as 14.4 µM with UACC-257 melanoma and 58.6 µM in the experiment with SNB-75 CNS.

As for `Cc1nn(-c2ccccc2)c(C)c1/C=N/N=C1\SCC(=O)N1c1ccccc1`, the TGI in the experiment on RXF 393 renal is 42.7 µM; in the experiment with RPMI-8226 leukemia, 35.3 µM; in the experiment on OVCAR-3 ovarian, 78.3 µM; with HOP-62 NSCLC it was 86.8 µM; in the experiment on IGROV1 ovarian, 93.9 µM; with SF-268 CNS, > 100 µM. The TGI in the experiment with UACC-257 melanoma is 88.2 µM; in the experiment with SNB-75 CNS, 55 µM.

Take `CCC1CN(C(=O)c2ccccc2)C(Cc2c[nH]c3ccccc23)C(=O)C1CC(=O)OC` (centres undefined): the TGI in the experiment on RXF 393 renal, with HOP-62 NSCLC, in the experiment with IGROV1 ovarian, with SF-268 CNS, in the experiment on UACC-257 melanoma and in the experiment with SNB-75 CNS was > 100 µM in each case.

For the compound `CCCNC(=O)CCC(C)C1CCC2C3C(C[C@H](OC(C)=O)[C@]12C)[C@@]1(C)CCC2(C[C@H]1C[C@H]3OC(C)=O)OOC1(CC[C@]3(C)C4C[C@H](OC(C)=O)[C@]5(C)C(C(C)CCC(=O)NCCC)CCC5C4[C@H](OC(C)=O)C[C@@H]3C1)OO2` (some centres undefined), the TGI with RXF 393 renal was > 87.1 µM; in the experiment on RPMI-8226 leukemia, > 100 µM; with OVCAR-3 ovarian, > 100 µM; in the experiment with HOP-62 NSCLC, > 100 µM; in the experiment with IGROV1 ovarian, > 100 µM; in the experiment with SF-268 CNS, > 100 µM. Moreover, the TGI in the experiment with UACC-257 melanoma is > 100 µM; with SNB-75 CNS it was > 69.5 µM.

`Nc1cccc(/C=C/C(=O)N2CCN(CCOC(c3ccccc3)c3ccccc3)CC2)c1`: the TGI in the experiment on RXF 393 renal came out at 28.7 µM; in the experiment with RPMI-8226 leukemia, 26.7 µM; in the experiment on OVCAR-3 ovarian it was 32 µM; in the experiment with HOP-62 NSCLC, 32.4 µM; in the experiment with IGROV1 ovarian it was 33.6 µM; with SF-268 CNS, 35 µM. In addition, the TGI with UACC-257 melanoma is 31.5 µM; in the experiment with SNB-75 CNS it was 26.2 µM.

As for `COc1cc2c(cc1O)CC[C@@H]1[C@@H]2CC[C@]2(C)[C@@H](OCCN(C)C)CC[C@@H]12`, the GI50 in the experiment on RPMI-8226 leukemia was 0.116 µM; in the experiment on OVCAR-3 ovarian, 0.183 µM; in the experiment on HOP-62 NSCLC, 0.389 µM; in the experiment with IGROV1 ovarian it was 0.818 µM; in the experiment with SF-268 CNS, 0.353 µM; in the experiment on UACC-257 melanoma, 0.138 µM. In the experiment with SNB-75 CNS, the GI50 was 0.0787 µM. Also, the TGI in the experiment on RPMI-8226 leukemia turned out to be 0.312 µM; in the experiment on OVCAR-3 ovarian, 0.966 µM; in the experiment on HOP-62 NSCLC it was 1.66 µM; in the experiment on IGROV1 ovarian it was 5.94 µM; with SF-268 CNS, 5.29 µM; in the experiment with UACC-257 melanoma it was 0.355 µM. In addition, in the experiment on SNB-75 CNS, the TGI was 0.449 µM.

`CCOC(=O)C1=NN(c2ccc(C)cc2)C2=CC(C)=NN(C)C(=S)N21`: the TGI was 30.1 µM in the experiment on RXF 393 renal; > 100 µM with RPMI-8226 leukemia; > 100 µM in the experiment on OVCAR-3 ovarian; > 100 µM in the experiment on IGROV1 ovarian; > 100 µM in the experiment on SF-268 CNS; > 100 µM in the experiment on UACC-257 melanoma. Moreover, the TGI in the experiment on SNB-75 CNS is > 100 µM.

In the case of `COc1ccc2c(c1)[nH]c1c(/C=C/c3ccccc3)nccc12`, the TGI in the experiment on RXF 393 renal is 38 µM; with RPMI-8226 leukemia, 93.5 µM; in the experiment on OVCAR-3 ovarian, 36.9 µM; with HOP-62 NSCLC, 41.4 µM; in the experiment with IGROV1 ovarian it was > 100 µM; in the experiment on SF-268 CNS, 36.7 µM. For the same compound, the TGI in the experiment on UACC-257 melanoma was found to be 31.1 µM; in the experiment on SNB-75 CNS, 32.3 µM.

Regarding `NCCCCc1cc(O)c2c(c1O)C(=O)c1ccccc1C2=O`, the TGI in the experiment with RXF 393 renal stood at 27.9 µM; in the experiment on RPMI-8226 leukemia it was 29.2 µM; in the experiment on OVCAR-3 ovarian it was 19.4 µM; with HOP-62 NSCLC, 21.3 µM; in the experiment with IGROV1 ovarian it was 22.2 µM; with SF-268 CNS it was 29.9 µM. Also, the TGI in the experiment on UACC-257 melanoma was 33.4 µM.

Consider `CCn1c(-c2ccc(N=NNc3ccc(-c4n[nH]c(=S)n4CC)cc3)cc2)n[nH]c1=S`, for which the TGI in the experiment on RXF 393 renal is 11.8 µM; in the experiment with RPMI-8226 leukemia it was 5.64 µM; in the experiment on OVCAR-3 ovarian, 5.61 µM; in the experiment on HOP-62 NSCLC, 8.03 µM; in the experiment with SF-268 CNS it was 17.2 µM; in the experiment with UACC-257 melanoma, > 100 µM. In addition, the TGI with SNB-75 CNS turned out to be 6.92 µM.

On to `O=C(O)C1C2CCC(O2)C1C(=O)Nc1cccc2cccnc12` (centres undefined), for which the TGI with RXF 393 renal, in the experiment with RPMI-8226 leukemia, with OVCAR-3 ovarian, with HOP-62 NSCLC, in the experiment with IGROV1 ovarian and with UACC-257 melanoma was > 100 µM throughout. In addition, in the experiment with SNB-75 CNS, the TGI is > 100 µM.

Consider `O=C(/C=C/c1ccc(O)c(-c2cc(C(=O)/C=C/c3ccc(O)cc3)c(O)cc2O)c1)c1ccc(O)cc1O`, for which the TGI in the experiment on RXF 393 renal was > 50 µM; with RPMI-8226 leukemia, > 50 µM; in the experiment on OVCAR-3 ovarian, 43.8 µM; with HOP-62 NSCLC, > 50 µM; in the experiment with IGROV1 ovarian, > 50 µM; in the experiment with SF-268 CNS, > 50 µM. Moreover, the TGI in the experiment with UACC-257 melanoma is > 50 µM; in the experiment with SNB-75 CNS, 36 µM.

As to `CNc1ccc2c(c1)[C@@]1(C)c3ccccc3[C@@H](C2)N1C`, the TGI with RXF 393 renal is 50.8 µM; in the experiment on RPMI-8226 leukemia, 38.9 µM; with OVCAR-3 ovarian, 50.5 µM; in the experiment with HOP-62 NSCLC, > 100 µM; with IGROV1 ovarian, > 100 µM; in the experiment with SF-268 CNS it was > 100 µM. In addition, the TGI in the experiment on UACC-257 melanoma was determined as 60.6 µM.
